The results in this text go back to patent publication US20200095280A1, “Methods of using GM6 in diagnosing and treating Alzheimers disease” (Genervon Biopharmaceuticals LLC, priority 2016, published 2020).

A short description of this data set: Blood brain barrier transit: ELISA of brain homogenate after IV injection. In kind it is in vivo, C57BL6 mice. The conditions noted are these: single bolus IV 0.2 and 2.0 mg/kg, four hours; vs control P=0.0001. Here is the method:
The ability to transit to the brain was tested. C57BL6 mice were injected with a single bolus IV tail vein injection of GM6 at 0.2 and 2.0 mg/kg. At four hours, the animals were sacrificed, and half of the brain was frozen for ELISA analysis.
On the technique in general: ELISA stands for enzyme-linked immunosorbent assay.

Where no end group is shown, it is not given here.

Consider FSRYAR [GM6, FSRYAR], for which the “GM6 in brain homogenate supernatant (ELISA)” value is given as “detected GM6 at statistically significant levels”.
